Experimental data reported in patent US9141756B1, “Multi-scale complex systems transdisciplinary analysis of response to therapy” (University of Southern California, priority 2010, dated 2015).
Where two headings read alike, the source gives them in different places.

Columns and labels:
[1] = test system: Eμ-myc lymphomas; settings: cited from earlier work
[2] = test system: A431-sensitive cancer cell line; assay: SILAC proteomic profiling of response to gefitinib

Compound | Phenotype: response to CTX ([1]; Eμ-Myc genotype) | Phenotype: response to CTX ([1]; Eμ-Myc/Arf −/− genotype (lymphoma lacking ARF)) | Phenotype: response to CTX ([1]; Eμ-Myc/Bcl2 genotype) | Phenotype: response to CTX ([1]; Eμ-Myc/p53 −/− genotype (lymphoma lacking p53)) | proteins showing a statistically significant change in abundance following treatment ([2]; A431 cells, SILAC) | potential cell-surface biomarkers showing changes in abundance in response to therapy ([2]; both in vitro and in vivo (xenograft)) | additional proteins showing changes in the secretome and serum ([2]; secretome and serum)
O=P1(N(CCCl)CCCl)NCCCO1 (stereo not shown) [CTX, cyclophosphamide] | variable response to CTX | slightly resistant to CTX | medium resistant to CTX | highly resistant to CTX | – | – | –
COc1cc2ncnc(Nc3ccc(F)c(Cl)c3)c2cc1OCCCN1CCOCC1 [geftinib, gefitinib] | – | – | – | – | 400 | Ten | seven
